Patent US7897789B2, “Vitamin D receptor modulators” (Eli Lilly and Company, priority 2003, dated 2011)
Several values for one entry are separate records, joined by “and”; a condition that tells them apart may be missing. Identical values can stand only once. Like-named read-outs stand apart in the source and are kept apart here.

Tests used:
[1] = system: DBF mice; conditions: in vivo, po
From the text: The Mouse Hypercalcemia Assay
(§1) The Mouse Hypercalcemia Assay is a six day hypercalcemia test for toxicity and selectivity.
(§2) (4) Materials and Method for the Mouse Hypercalcemia Assay:
(§3) Weanling, virus-antibody-free, five to six weeks old female DBF mice (Harlan, Indianapolis, Ind.) are used for all the studies. Animals are allowed to acclimate to local vivarium conditions for 2 days. […] The animals then are divided into groups with 4-5 mice per group. Different doses of test compounds prepared in 10% Ethanol and 90% sesame oil are administered to mice orally via gavage for 6 days. 1α-25(OH)2D3 0.5 μg/kg/d was also given to one group of mice as the positive control. […] Raw data of group differences is assessed by analysis of variance (ANOVA) using Fisher's protected least significant difference (PLSD) where the significance level was P<0.05.

[2] = system: IL-10; experiment: Human IL-10 induction assay in PBMCs; assay type: cell-based; conditions: PBMC; TPA/PHA treated human PBMCs; Table 2
From the text: 6. The IL-10 Induction Assay
This is an in vitro efficacy assay for psoriasis, abscess and adhesion. Psoriasis involves both keratinocytes and immune cells. IL-10 is a unique cytokine because it is anti-inflammatory and immunosuppressive. This assay tells us whether a VDRM is able to function as an agonist in PBMCs ([…]) or not.
(6) Materials and Method for Human IL-10 Induction Assay:
Isolation of Peripheral Blood Mononuclear Cells (PBMCs):
Stimulation of PBMC: • L. Prepare TPA in DMSO. • M. Dissolve PHA in water. • N. Plate TPA/PHA treated PBMCs in well plates. • O. Incubate.
Sample Collection and Assay: • S. Remove all the cells by centrifugation and assay the supernatant for IL-10 by immunoassay. • T. Perform IL-10 assay using anti-human IL-10 antibody coated beads, as described by the manufacturer (Linco Research Inc., St. Charles, Mo.). (8) CaT1 Assay

[3] = target: T1, RXR-VDR heterodimer (Homo sapiens, UniProt P11473); experiment: RXR-VDR heterodimerization assay (SaOS-2 cells); assay type: cell-based; conditions: Gal4-RXR / VP16-VDR-LBD luciferase reporter, Table 1
T1 construct: Add the Gal4-RXR-DEF and VP16-VDR-LBD; expressed in transfected cells; host or cells: SaOS-2 cells
T1 sequence (P11473 127-423 limits assumed): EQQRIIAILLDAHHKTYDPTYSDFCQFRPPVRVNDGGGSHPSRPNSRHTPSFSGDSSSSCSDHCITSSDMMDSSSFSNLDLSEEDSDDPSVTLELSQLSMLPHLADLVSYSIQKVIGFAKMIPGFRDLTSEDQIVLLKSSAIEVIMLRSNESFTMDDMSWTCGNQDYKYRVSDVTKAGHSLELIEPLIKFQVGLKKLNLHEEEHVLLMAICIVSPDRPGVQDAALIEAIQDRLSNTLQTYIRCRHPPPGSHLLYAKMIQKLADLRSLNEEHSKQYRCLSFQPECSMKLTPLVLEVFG
T1 sequence (P19793 201-462 partner limits assumed): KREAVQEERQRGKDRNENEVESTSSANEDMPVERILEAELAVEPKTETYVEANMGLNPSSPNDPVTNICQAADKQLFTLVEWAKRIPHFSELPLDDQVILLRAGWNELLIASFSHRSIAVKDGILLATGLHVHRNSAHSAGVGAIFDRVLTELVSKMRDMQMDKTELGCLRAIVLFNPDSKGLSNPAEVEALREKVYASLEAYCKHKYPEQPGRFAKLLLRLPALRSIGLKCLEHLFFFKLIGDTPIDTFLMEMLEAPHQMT
Procedure: 1. The RXR-VDR HeterodimerAssay:
This assay provides the VDR activity of a test compound.
(1) Materials and Method for RXR-VDR Heterodimerization Assay:
Luciferase Assay Reagent: • Use Steady-Glo Luciferase Reagent from Promega (Cat #E2550) Consists of: a. E2533 Assay Substrate, lyopholized product and b. E2543 Assay Buffer. • Thaw at room temperature • Store Cell Harvesting Aspirate media from culture flask, rinse cells with HBSS and aspirate. Add trypsin and incubate. When cells appear detached, resuspend cells in growth media. Transfer into a new flask with fresh growth media for passaging the cells. Plate well plates and two extra plates A. Cell Count Mix the cell suspension using pipette Use Hematocytometer to count the cells Load cell suspension onto the hemocytometer chamber Count cells. […] In sterile flask add cell suspension to plating media. Mix. Add cells/well. Place the cells in the incubator. Cells should be about 75% confluent prior to transfection. DAY 2: Transfection Step 1: DNA and Media Add plain DMEM media to tubes for mixing the DNA Add the Reporter gene pFR-LUC Add the Gal4-RXR-DEF and VP16-VDR-LBD Step 2: FuGENE and Media Prepare plain DMEM media in a ubes for mixing FuGENE Add FuGENE 6 Transfection Reagent Incubate Step 3: FuGENE, DNA and Media Complex Add FuGENE Media complex from step 2 to DNA Media complex from step 1 Incubate Step 4: FuGENE, DNA and Media Complex to-well plate Add FuGENE-DNA-Media complex from step 3 to each plate Incubate. […] Day 4: Luciferase Assay Read the plates after drug treatment Remove part of media from all the wells and leave remainder Add Steady-Glo Luciferase Reagent mixture/wells Incubate Count each well using a Luminescence counter, Top Count NXT by Packard
Set a delay between plates to reduce the background.

[4] = system: DBF mice; experiment: Mouse hypercalcemia assay; conditions: oral gavage for 6 days, serum ionized calcium 6 hours after last dosing; Table 1
From the text: The Mouse Hypercalcemia Assay
as §1, §2, §3

[5] = system: rat osteocalcin promoter; experiment: OCN (osteocalcin) promoter assay; assay type: cell-based; conditions: Rattus norvegicus, 48 h, RG-15 (ROS 17/2.8) cells, 48 hr treatment; Table 1
Procedure: 3. The OCN (Osteocalcin) Promoter Assay
The OCN Promoter Assay is an indicator and marker for osteoporosis. […] Preferred assay results are less than 50 nM.
(3) Materials and Method for the OCN Promoter Assay:
The activation of osteocalcin by VDR ligands was evaluated in a rat osteoblast-like cell line RG-15 (ROS 17/2.8) stably expressing rat osteocalcin promoter fused with luciferase reporter gene. […] Confluent RG-15 cells maintained in DMEM/F-12 medium (3:1) containing 5% FBS, 300 μg/ml G418 and at 37° C. under 5% CO2/95% air atmosphere were trypsinized (0.25% trypsin) and plated into white opaque 96-well cell culture plates (25000 cells/well). After 24 hr, cells (in DMEM/F-12 medium+2% FBS) were treated with various concentrations of compounds, dissolved in DMSO. The final DMSO concentration remained at 0.01% (v/v). After 48 hr treatment, the medium was removed, cells were lysed with 50 μl of lysis buffer (From Luciferase reporter assay system, Roche Diagnostics, Indianapolis, Ind.) and assayed for luciferase activity using the Luciferase Reporter Gene Assay kit from Boehringer Mannheim as per manufacturer's specifications.

[6] = system: KERtr cells; experiment: Keratinocyte proliferation assay; assay type: cell-based; conditions: Homo sapiens, 72 h, BrdU incorporation, Table 2, read-out: Kera. Prolif. IC50
Procedure: 5. The Keratinocyte Proliferation Assay
This Assay is indicative for the treatment of psoriasis.
(5) The Keratinocyte Proliferation Assay:
KERtr cells (Human skin keratinocyte transformed with a retrovirus vector, obtained from ATCC) were plated in 96-well flat-bottomed plates (3000 cells/well) in 100 μl keratinocyte serum free medium supplemented with bovine pituitary extract in the absence of EGF (Life Technologies, Rockville, Md.) and incubated at 37° C. for two days. The cells were treated with various concentrations of VDR ligands (ten-fold serial dilution from 10,000 nM to 0.1 nM in triplicate), dissolved in 100 μl keratinocyte serum free medium supplemented with bovine pituitary extract in the absence of EGF and incubated at 37° C. for 72 hr. […] Potency values (IC50) values were determined as the concentration (nM) of compound that elicited a half-maximal response.

[7] = target: T2, VDR (Homo sapiens, UniProt P11473); experiment: Caco-2 cell co-transfection assay (VDR CTF); assay type: cell-based; conditions: Caco-2 cells, pGal4-VDR-LBD luciferase co-transfection; Table 1
T2 construct: the receptor expression vector pGal4-VDR-LBD (10 ng); expressed in transfected cells; host or cells: Caco-2 cells
T2 sequence (P11473 127-423 limits assumed): T1 sequence (P11473 127-423 limits assumed)
Procedure: 2. The Caco-2 Cell Co-Transfection Assay:
The Caco-2 cell assay is an indicator for the undesirable condition of hypercalcemia. This co-transfection assay is a surrogate assay for in vivo calcemic activity of VDR ligands. […] Preferred assay results are greater than 1000 nM.
(2) Materials and Method for The Caco-2 Cell Assay:
Caco-2 cells, grown in phenol red free, DMEM (Invitrogen, Carlsbad, Calif.) containing 10% charcoal-stripped FCS (Hyclone, Logan, Utah), were transfected with Fugene 6 reagent (Roche Diagnostics, Indianapolis, Ind.). Cells (5000/well) were plated 18 h before transfection in a 96 well plate. The Cells were transfected with Gal4-responsive reporter pFRLuc (150 ng, Stratagene, La Jolla Calif.) and the receptor expression vector pGal4-VDR-LBD (10 ng), along with Fugene 6 reagent (0.2 μl/well). The DNA-Fugene complex was formed by incubating the mixture for 30 min at room temperature. The cells were transfected in triplicate for 5 h, and treated with various concentrations of VDR ligands (form 0.01 nM to 10,000 nM concentration range) 18 h post-transfection. The luciferase activity was quantified using Steady-Glo reagent kit (Promega, Madison, Wis.) as per manufacturer's specifications.

Compound: C=C1/C(=C\C=C2/CCC[C@]3(C)[C@@H]([C@H](C)CCCC(C)(C)O)CC[C@@H]23)C[C@@H](O)C[C@@H]1O [AA, 1α,25-dihydroxyvitamin D3]
- Mouse Hypercal [1]: 0.06 µg/kg/day

Compound: CCC(CC)(c1ccc(OCC(=O)C(C)(C)C)c(C)c1)c1cc2cc(C(=O)NCC(=O)O)ccc2s1 [Ex 19, [(2-{1-[4-(3,3-Dimethyl-2-oxo-butoxy)-3-methyl-phenyl]-1-ethyl-propyl}-benzo[b]thiophene-5-carbonyl)-amino]-acetic acid]
- IC50 [2]: 149 nM
- EC50 [3]: 114 nM and 21 nM
- Mouse Hypercal [4]: >300 µg/kg/day
- EC50 [5]: 4.7 nM
- IC50 [6]: 16 nM
- EC50 [7]: 815 nM

Compound: CCC(CC)(c1ccc(OCC(=O)C(C)(C)C)c(C)c1)c1cc2ccc(C(=O)NCC(=O)O)cc2s1 [Ex. 11, [(2-{1-[4-(3,3-dimethyl-2-oxo-butoxy)-3-methyl-phenyl]-1-ethyl-propyl}-benzo[b]thiophene-6-carbonyl)-amino]-acetic acid]
- IC50 [2]: 10 nM
- EC50 [3]: 45 nM
- Mouse Hypercal [4]: >300 µg/kg/day
- EC50 [5]: 0.2 nM
- IC50 [6]: 2 nM
- EC50 [7]: 299 nM
